Data reported in patent US10376456B2, “Concentrated and self-preserving compositions of mild surfactants for transparent and skin-pH personal care formulations” (GALAXY SURFACTANTS LTD., priority 2015, dated 2019).

Columns and labels:
subject's volar arm = experiment: Corneometry analysis of skin hydration after repeated application of body-wash; type: in vivo; conditions: body-wash 12% active matter, 2% PEG-150 distearate, twice a day for fifteen days, 50% RH, 20° C.
From the text: Removal of Natural Moisturizing Factor (NMF) from stratum corneum during cleansing leads to a lower capacitance reading since there is less secondary bound water in the skin's corneocytes. […] The corneometer findings are consistent with the TEWL findings.

[1] = Critical micelle concentration (CMC); type: physicochemical
From the text: It is well established that in case of surfactants, lower the CMC value, milder the surfactants. Ionic surfactant molecules interact with proteins through charge-charge interaction since the charge density on the head group is high. Whenever aggregates are formed the charge density of micelle is much lesser as the charge gets spread over the large micelle. […] It can be seen from Table 2 that CMC of anionic sodium lauryl sulphate (SLS) is the highest and zwitterionic (electrically neutral) cocoamidopropyl (CAPB) is the lowest.

| Compound | Skin moisture level (corneometry) (subject's volar arm) | CMC [1] |
| --- | --- | --- |
| Sodium lauryl ether sulfate [sodium lauryl ether sulphate (2 EO)] | dry the stratum corneum | – |
| CCCCCCCCCCCCOS(=O)(=O)[O-].[Na+] [SLS, sodium lauryl sulfate] | – | 5.90 mM/liter |
| Sodium cocoyl isethionate | – | 0.14 mM/liter |
| sodium cocoyl glycinate | – | 1.01 mM/liter |
| Cocoamidopropyl betaine [CAPB] | – | 0.06 mM/liter |
